Reference: patent US20060264460A1 (Wyeth, priority 2005, published 2006)

target: T1, human Cot/Tpl2 kinase (Homo sapiens, UniProt P41279); assay: Tpl2/Cot kinase assay: GST-MEK1 phosphorylation detected by ELISA (DELFIA Eu); assay type: biochemical; settings: Table 2; Tpl2/Cot kinase, GST-MEK1 substrate, 50 uM ATP
T1 construct: human Cot/Tpl2 kinase construct encoding residues 30-398; 6His (N); made in house; host or cells: Sf9 insect cells, baculovirus system (BD Biosciences)
How it was run: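 Substrate phosphorylation (GST-MEK1 Ser217/221) quantified by DELFIA europium ELISA, yielding IC50 values. Reaction: 1 h at 30° C, pH 7.2 MOPS buffer, 50 uM ATP, 35 nM GST-MEK1, 0.4 nM monomeric His-Tpl2 purified from Sf9 cells, compounds at 1% final DMSO; stopped with EDTA.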

T1 sequence (P41279 30-398): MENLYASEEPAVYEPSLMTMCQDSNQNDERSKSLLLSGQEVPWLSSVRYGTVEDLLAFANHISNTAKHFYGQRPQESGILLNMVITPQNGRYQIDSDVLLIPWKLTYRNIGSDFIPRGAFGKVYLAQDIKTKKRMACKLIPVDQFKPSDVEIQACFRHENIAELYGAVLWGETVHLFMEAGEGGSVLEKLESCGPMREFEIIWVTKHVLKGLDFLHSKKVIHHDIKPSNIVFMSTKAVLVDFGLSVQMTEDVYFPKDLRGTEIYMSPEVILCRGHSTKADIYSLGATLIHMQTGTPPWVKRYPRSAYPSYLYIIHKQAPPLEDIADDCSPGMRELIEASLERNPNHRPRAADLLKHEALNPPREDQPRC

| Structure (SMILES) | IC50 [nM] |
| --- | --- |
| N#Cc1cncc(-c2ccccc2NCc2cnc[nH]2)c1Nc1ccc(F)c(Cl)c1 [Example 534] | > 3000 |
| Fc1ccc(Nc2ncncc2-c2cccc(NCc3cnc[nH]3)c2)cc1Cl [Example 535] | > 3000 |
| Fc1ccc(Nc2ncncc2-c2ccccc2NCc2cnc[nH]2)cc1Cl [Example 536] | > 3000 |
| N#Cc1cnc2c(Br)cc(NCc3cc(C4CCNCC4)n[nH]3)cc2c1Nc1ccc(F)c(Cl)c1 [Example 537] | 800 |
| N#Cc1cnc2c(Br)cc(NCc3cn(CCCN4CCCCC4)nn3)cc2c1Nc1ccc(F)c(Cl)c1 [Example 538] | 3.4 |
| N#Cc1cnc2c(Cl)cc(NCc3cn(CCCN4CCCCC4)nn3)cc2c1Nc1ccc(F)c(Cl)c1 [Example 539] | 1.1 |
| CC(C)(C)OC(=O)N1CCCC(Cn2cc(CNc3cc(Br)c4ncc(C#N)c(Nc5ccc(F)c(Cl)c5)c4c3)nn2)C1 (stereo not shown) [Example 540] | 120 |
| CC(C)(C)OC(=O)N1CCCC(Cn2cc(CNc3cc(Cl)c4ncc(C#N)c(Nc5ccc(F)c(Cl)c5)c4c3)nn2)C1 (stereo not shown) [Example 541] | 250 |
| CC(C)(C)CN1CCC(n2cc(CNc3cc(Br)c4ncc(C#N)c(Nc5ccc(F)c(Cl)c5)c4c3)nn2)CC1 [Example 542] | 190 |
| CC(C)(C)OC(=O)N1CCCC1Cn1cc(CNc2cc(Cl)c3ncc(C#N)c(Nc4ccc(F)c(Cl)c4)c3c2)nn1 (stereo not shown) [Example 543] | 320 |
| N#Cc1cnc2c(Br)cc(NCc3cn(CC4CCCNC4)nn3)cc2c1Nc1ccc(F)c(Cl)c1 (stereo not shown) [Example 545] | 33 |
| N#Cc1cnc2c(Cl)cc(NCc3cn(CC4CCCNC4)nn3)cc2c1Nc1ccc(F)c(Cl)c1 (stereo not shown) [Example 546] | 48 |
| CC(=O)N1CCC(n2cc(CNc3cc(Br)c4ncc(C#N)c(Nc5ccc(F)c(Cl)c5)c4c3)nn2)CC1 [Example 547] | 6.1 |
| CN1CCCC1CCn1cnc(CNc2cc(Br)c3ncc(C#N)c(Nc4ccc(F)c(Cl)c4)c3c2)c1 (stereo not shown) [Example 548] | 34 |
| N#Cc1cnc2c(Br)cc(NCc3cn(CC4CCCN4)nn3)cc2c1Nc1ccc(F)c(Cl)c1 (stereo not shown) [Example 550] | 9.2 |
| C=CCn1cnc(CNc2cc(Br)c3ncc(C#N)c(Nc4ccc(F)c(Cl)c4)c3c2)c1 [Example 551] | 4.8 |
| N#Cc1cnc2c(Cl)cc(NCc3cn(Cc4cccnc4)cn3)cc2c1Nc1ccc(F)c(Cl)c1 [Example 553] | 0.7 |
| N#Cc1cnc2c(Br)cc(NCc3cn(-c4ccncc4)cn3)cc2c1Nc1ccc(F)c(Cl)c1 [Example 554] | 23 |
| N#Cc1cnc2c(Br)cc(NCc3cc([C@@H]4CCCN4)n[nH]3)cc2c1Nc1ccc(F)c(Cl)c1 [Example 555] | 330 |
| N#Cc1cnc2c(Br)cc(NCc3cn(CCc4ccccn4)nn3)cc2c1Nc1ccc(F)c(Cl)c1 [Example 558] | 3.4 |
| N#Cc1cnc2c(Br)cc(NCc3cn(-c4ccncc4)nn3)cc2c1Nc1ccc(F)c(Cl)c1 [Example 559] | 5.5 |
| C=CCn1cc(CNc2cc(Br)c3ncc(C#N)c(Nc4ccc(F)c(Cl)c4)c3c2)nn1 [Example 561] | 20 |
| COCCn1cc(CNc2cc(Cl)c3ncc(C#N)c(Nc4ccc(F)c(Cl)c4)c3c2)nn1 [Example 562] | 20 |
| N#Cc1cnc2c(Cl)cc(NCc3cn(CCc4ccccn4)nn3)cc2c1Nc1ccc(F)c(Cl)c1 [Example 563] | 25 |
| COCCOCCn1cc(CNc2cc(Cl)c3ncc(C#N)c(Nc4ccc(F)c(Cl)c4)c3c2)nn1 [Example 564] | 21 |
| COCCOCCn1cc(CNc2cc(Br)c3ncc(C#N)c(Nc4ccc(F)c(Cl)c4)c3c2)nn1 [Example 565] | 100 |

| Structure (SMILES) | IC50 [nM] |
| --- | --- |
| CCN1CCC(Cn2cc(CNc3cc(Br)c4ncc(C#N)c(Nc5ccc(F)c(Cl)c5)c4c3)nn2)CC1 [Example 566] | 40 |
| CC(C)N1CCC(Cn2cc(CNc3cc(Br)c4ncc(C#N)c(Nc5ccc(F)c(Cl)c5)c4c3)nn2)CC1 [Example 567] | 29 |
| CCN1CCC(CCn2cc(CNc3cc(Br)c4ncc(C#N)c(Nc5ccc(F)c(Cl)c5)c4c3)nn2)CC1 [Example 568] | 64 |
| CC(C)N1CCC(CCn2cc(CNc3cc(Br)c4ncc(C#N)c(Nc5ccc(F)c(Cl)c5)c4c3)nn2)CC1 [Example 569] | 57 |
| N#Cc1cnc2c(Cl)cc(NCc3cn(C4CCOCC4)nn3)cc2c1Nc1ccc(F)c(Cl)c1 [Example 570] | 14 |
| CN(C)CCc1nc[nH]c1CNc1cc(Br)c2ncc(C#N)c(Nc3ccc(F)c(Cl)c3)c2c1 [Example 571] | 240 |
| N#Cc1cnc2c(Cl)cc(NCc3cn(CCOCCOCCO)nn3)cc2c1Nc1ccc(F)c(Cl)c1 [Example 572] | 91 |
| N#Cc1cnc2c(Br)cc(NCc3cn(CCOCCOCCO)nn3)cc2c1Nc1ccc(F)c(Cl)c1 [Example 573] | 140 |
| CN(C)CC(c1ccccc1)n1cc(CNc2cc(Cl)c3ncc(C#N)c(Nc4ccc(F)c(Cl)c4)c3c2)nn1 (stereo not shown) [Example 574] | 70 |
| CN(C)CC(c1ccccc1)n1cc(CNc2cc(Br)c3ncc(C#N)c(Nc4ccc(F)c(Cl)c4)c3c2)nn1 (stereo not shown) [Example 575] | 93 |
| N#Cc1cnc2c(Cl)cc(NCc3cn(-c4cc[n+]([O-])cc4)nn3)cc2c1Nc1ccc(F)c(Cl)c1 [Example 576] | 16 |
| N#Cc1cnc2c(Br)cc(NCc3cn(-c4cc[n+]([O-])cc4)nn3)cc2c1Nc1ccc(F)c(Cl)c1 [Example 577] | 15 |
| N#Cc1cnc2c(Cl)cc(NCc3cn(-c4ccnc(N5CCCCC5)n4)nn3)cc2c1Nc1ccc(F)c(Cl)c1 [Example 578] | 320 |
| N#Cc1cnc2c(Br)cc(NCc3cn(Cc4ccccn4)nn3)cc2c1Nc1ccc(F)c(Cl)c1 [Example 579] | 33 |
| N#Cc1cnc2c(Cl)cc(NCc3cn(CCCO)nn3)cc2c1Nc1ccc(F)c(Cl)c1 [Example 581] | 3.6 |
| CN(C)C(=O)OCCCn1cc(CNc2cc(Cl)c3ncc(C#N)c(Nc4ccc(F)c(Cl)c4)c3c2)nn1 [Example 582] | 16 |
| N#Cc1cnc2c(Cl)cc(NCc3cn(Cc4ccc(C(F)(F)F)cc4)nn3)cc2c1Nc1ccc(F)c(Cl)c1 [Example 583] | > 3000 |
| CN(C)C(=O)OCCCn1cc(CNc2cc(Br)c3ncc(C#N)c(Nc4ccc(F)c(Cl)c4)c3c2)nn1 [Example 584] | 3.5 |
| N#Cc1cnc2c(Cl)cc(NCc3cn(CC4CCCCC4)nn3)cc2c1Nc1ccc(F)c(Cl)c1 [Example 585] | 790 |
| CC(c1ccccc1)n1cc(CNc2cc(Cl)c3ncc(C#N)c(Nc4ccc(F)c(Cl)c4)c3c2)nn1 (stereo not shown) [Example 586] | 96 |
| CN(C)CCC(c1cccnc1)n1cc(CNc2cc(Br)c3ncc(C#N)c(Nc4ccc(F)c(Cl)c4)c3c2)nn1 (stereo not shown) [Example 587] | 6.7 |
| CN(C)CCC(c1cccnc1)n1cc(CNc2cc(Cl)c3ncc(C#N)c(Nc4ccc(F)c(Cl)c4)c3c2)nn1 (stereo not shown) [Example 588] | 36 |
| CC(C)(C)OC(=O)N1CCCN(CCCn2cc(CNc3cc(Br)c4ncc(C#N)c(Nc5ccc(F)c(Cl)c5)c4c3)nn2)CC1 [Example 589] | 520 |
| CC(C)(C)OC(=O)N1CCCN(CCCn2cc(CNc3cc(Cl)c4ncc(C#N)c(Nc5ccc(F)c(Cl)c5)c4c3)nn2)CC1 [Example 590] | 120 |
| CC(C)(C)OC(=O)N1CCN(CCCn2cc(CNc3cc(Br)c4ncc(C#N)c(Nc5ccc(F)c(Cl)c5)c4c3)nn2)CC1 [Example 591] | 1300 |
| CC(C)(C)OC(=O)N1CCN(CCCn2cc(CNc3cc(Cl)c4ncc(C#N)c(Nc5ccc(F)c(Cl)c5)c4c3)nn2)CC1 [Example 592] | 230 |
